This note sets out measurements from patent publication US10028992B2, “Methods of treating muscular dystrophy” (BOARD OF REGENTS OF THE NEVADA SYSTEM OF HIGHER EDUCATION …, priority 2012, dated 2018).

Several values for one entry are separate records, joined by “and”; a condition that tells them apart may be missing. Equal entries are not always repeated.

The test system of this assay is α7 integrin promoter. The experiment in a line: muscle cell-based assay: α7βgal+/− myoblasts/myotubes, LacZ reporter, β-galactosidase cleavage of FDG. Also noted: species or system mouse; Results in α7+/− β-galactosidase assay: scale not given here. To be noted: Myoblasts. A digest of the protocol: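 Primary α7βgal+/− mouse myoblasts (LacZ knocked into α7 integrin exon 1, promoter retained), differentiated; promoter activity read as β-galactosidase conversion of non-fluorescent FDG to fluorescein. Hits followed by dose-response, western analysis and myostatin counterscreen.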

Consider `C=CCOc1ccc(C(=O)/C=C2\C(=O)Nc3ccccc32)cc1` [drawing 561], for which the “Results in α7+/− β-galactosidase assay” value (0.5 uM) is on record as −0.1092; the “Results in α7+/− β-galactosidase assay” value (1 uM) is listed as −0.1536; the “Results in α7+/− β-galactosidase assay” value (5 uM) is given as −0.257; the “Results in α7+/− β-galactosidase assay” value (10 uM) was −0.2991; the “Results in α7+/− β-galactosidase assay” value (20 uM) is −0.2121; the “Results in α7+/− β-galactosidase assay” value (40 uM) is given as −0.7606.

As for `CCN(CC(=O)NCc1cccs1)C(=O)COc1ccc(C(N)=O)cc1` [drawing 562], the “Results in α7+/− β-galactosidase assay” value is −0.04485 (0.5 uM); −0.05578 (1 uM); −0.03005 (5 uM); 0.2509 (10 uM); −0.05432 (20 uM); −0.02246 (40 uM).

For `CC(C)Oc1cccc(C(=O)Nc2ccc(CN3CCOCC3)cc2)c1` [drawing 563], the “Results in α7+/− β-galactosidase assay” value was −0.0458 (0.5 uM); −0.04183 (1 uM); 0.01603 (5 uM); 0.2092 (10 uM); 0.7886 (20 uM); −0.0962 (40 uM).

Turning to `Cc1ccc(/C=C2\C(=O)Nc3ccccc32)o1` [drawing 564], the “Results in α7+/− β-galactosidase assay” value by setting is: (0.5 uM) 0.06962; (1 uM) 0.01537; (5 uM) −0.08809; (10 uM) −0.1824; (20 uM) −0.2196; (40 uM) −0.6995.

For `O=c1[nH]c(CN2CCCCC2)cc2c1C1(CCCCC1)Cc1ccccc1-2` [drawing 565], the “Results in α7+/− β-galactosidase assay” value reads like this: (0.5 uM) 0.03731; (1 uM) −0.01272; (5 uM) −0.01947; (10 uM) −0.1479; (20 uM) 0.1068; (40 uM) −0.1465.

For the compound `COc1ccccc1NS(=O)(=O)c1cc(NC(=O)c2ccc(Cl)nc2)ccc1N1CCCC1` [drawing 566], the “Results in α7+/− β-galactosidase assay” value is, setting by setting: (0.5 uM) 0.1257; (1 uM) 0.1127; (5 uM) 0.06786; (10 uM) 0.0849; (20 uM) −0.1817; (40 uM) −0.2311.

For the compound `N#C/C(=C1/C(=O)Nc2ccc(Br)cc21)c1ccccn1` [drawing 567], the “Results in α7+/− β-galactosidase assay” value is, setting by setting: (0.5 uM) 0.2021; (1 uM) 0.000395; (5 uM) −0.2923; (10 uM) −0.4689; (20 uM) −0.5478; (40 uM) −0.6637.

For the compound `N#CC1=C2SCN(c3ccccc3)CN2C(=O)CC1c1cccs1` (stereo not shown) [drawing 568], the “Results in α7+/− β-galactosidase assay” value is, setting by setting: (0.5 uM) −0.02125; (1 uM) −0.07703; (5 uM) −0.07651; (10 uM) −0.05714; (20 uM) 0.1121; (40 uM) −0.08344.

Consider `COc1ccc(C(=O)/C=C2\C(=O)Nc3ccccc32)cc1` [drawing 569], for which the “Results in α7+/− β-galactosidase assay” value reads like this: (0.5 uM) 0.002308; (1 uM) −0.1094; (5 uM) −0.5146; (10 uM) −0.6859; (20 uM) −0.703; (40 uM) −0.8556.

Turning to `O=C(O)c1csc(-c2cccs2)n1` [drawing 570], the “Results in α7+/− β-galactosidase assay” value (0.5 uM) was determined as 0.0287; the “Results in α7+/− β-galactosidase assay” value (1 uM) is −0.01442; the “Results in α7+/− β-galactosidase assay” value (5 uM) is 0.8119; the “Results in α7+/− β-galactosidase assay” value (10 uM) is −0.08869; the “Results in α7+/− β-galactosidase assay” value (20 uM) is 0.1022; the “Results in α7+/− β-galactosidase assay” value (40 uM) was −0.04959.

In the case of `COc1cccc(C(=O)COc2ccc3ccc(=O)oc3c2)c1` [drawing 571], the “Results in α7+/− β-galactosidase assay” value (0.5 uM) worked out at 0.09281; the “Results in α7+/− β-galactosidase assay” value (1 uM) is on record as 0.06053; the “Results in α7+/− β-galactosidase assay” value (5 uM) is −0.01266; the “Results in α7+/− β-galactosidase assay” value (10 uM) was 0.02813; the “Results in α7+/− β-galactosidase assay” value (20 uM) is on record as 0.004164; the “Results in α7+/− β-galactosidase assay” value (40 uM) was −0.04457.

For `CCCS(=O)(=O)c1nc(S(=O)(=O)c2ccc(C)cc2)c(N2CCCC2)s1` [drawing 572], the “Results in α7+/− β-galactosidase assay” value reads like this: (0.5 uM) 0.06463; (1 uM) 0.01847; (5 uM) −0.2102; (10 uM) −0.5196; (20 uM) −0.8221; (40 uM) −0.878.

In the case of `OC(c1nc2cc(F)ccc2[nH]1)C(O)c1nc2cc(F)ccc2[nH]1` (stereo not shown) [drawing 573], the “Results in α7+/− β-galactosidase assay” value by setting is: (0.5 uM) 0.08093; (1 uM) 0.2145; (5 uM) −0.08597; (10 uM) −0.1055; (20 uM) 0.001076; (40 uM) −0.1048.

On to `COc1ccc(OC)c(NC(=O)CN2CCC(NC(=O)c3ccccc3C)CC2)c1` [drawing 574], for which the “Results in α7+/− β-galactosidase assay” value is recorded as 0.0132 (0.5 uM); 0.06975 (1 uM); 0.04855 (5 uM); −0.0931 (10 uM); 0.06823 (20 uM); 0.04785 (40 uM).

For `O=C(CCc1ccccc1)c1nnc(-c2ccccc2)o1` [drawing 575], the “Results in α7+/− β-galactosidase assay” value is 0.0917 (0.5 uM); 0.1045 (1 uM); 0.03485 (5 uM); −0.04687 (10 uM); −0.02713 (20 uM); −0.06265 (40 uM).

As to `COc1ccc(/N=N/c2ccc(N)nc2N)cc1` [drawing 576], the “Results in α7+/− β-galactosidase assay” value is reported as 0.2183 (0.5 uM); 0.2858 (1 uM); 0.06976 (5 uM); 0.01151 (10 uM); 0.0406 (20 uM); −0.04372 (40 uM).

On to `N=C(NOC(=O)c1cccc(C(F)(F)F)c1)c1cnccn1` [drawing 577], for which the “Results in α7+/− β-galactosidase assay” value was −0.05513 (0.5 uM); 0.02871 (1 uM); −0.00636 (5 uM); −0.02595 (10 uM); 0.07472 (20 uM); 0.1346 (40 uM).

For the compound `CCOc1ccc2nc(Cl)sc2c1` [drawing 578], the “Results in α7+/− β-galactosidase assay” value runs as follows: (0.5 uM) −0.06751; (1 uM) 0.05388; (5 uM) 0.04367; (10 uM) −0.03134; (20 uM) 0.1725; (40 uM) 0.1336.

On to `COc1ccc(CNC(=O)C2CCCN(S(=O)(=O)c3c(C)noc3/C=C/N(C)C)C2)cc1` (stereo not shown) [drawing 579], for which the “Results in α7+/− β-galactosidase assay” value is −0.00404 (0.5 uM); 0.03462 (1 uM); −0.04768 (5 uM); −0.2043 (10 uM); −0.2235 (20 uM); −0.5821 (40 uM).

Regarding `CC(O)CNc1nc2c(c(=O)n(Cc3ccc(Br)cc3)c(=O)n2C)n1C` (stereo not shown) [drawing 580], the “Results in α7+/− β-galactosidase assay” value by setting is: (0.5 uM) 0.04963; (1 uM) 0.02595; (5 uM) −0.05885; (10 uM) −0.1174; (20 uM) −0.1471; (40 uM) −0.218.

With `COc1ccc(Cl)cc1NC(=O)c1cc(-c2cc(C)ccc2O)[nH]n1` [drawing 581], the “Results in α7+/− β-galactosidase assay” value is, setting by setting: (0.5 uM) 0.01879; (1 uM) 0.1148; (5 uM) −0.07708; (10 uM) −0.1804; (20 uM) −0.08756; (40 uM) −0.06105.

As for `CCC(C)C(CC)NC(=O)CSc1nnc(COc2ccc(Cl)cc2)o1` (stereo not shown) [drawing 582], the “Results in α7+/− β-galactosidase assay” value by setting is: (0.5 uM) 0.3279; (1 uM) 0.05348; (5 uM) 0.1357; (10 uM) −0.1014; (20 uM) −0.1787; (40 uM) −0.4133.

Regarding `N#Cc1ccc(Sc2nc3ccccc3[nH]2)cc1C#N` [drawing 584], the “Results in α7+/− β-galactosidase assay” value is reported as 0.3095 (0.5 uM); 0.07925 (1 uM); 0.2487 (5 uM); 0.1199 (10 uM); 0.003655 (20 uM); −0.1111 (40 uM).

Regarding `COc1cc(/C=C/CN2CCN(Cc3ccc(C)o3)C(CCO)C2)ccc1O` (stereo not shown) [drawing 585], the “Results in α7+/− β-galactosidase assay” value (5 uM) was 0.1427 and 0.1728.
